In BindingDB's records for doi:10.1016/j.chembiol.2013.07.014 (University of Massachusetts, 2013):

What was measured:
Experiment in all cases: HIV-1 protease inhibition assay
Conditions in all cases: pH 4.7; 25 °C
[1] = target: T1, Gag-Pol polyprotein [484-582,Q491K,I494L,I497V,V499I,E519D,I534V,R541K,D544E,Q553K,A555V,L573M] (Human immunodeficiency virus, UniProt Q9QBY3, A555V/D544E/E519D/I494L/I497V/I534V/L573M/Q491K/Q553K/R541K/V499I)
T1 construct: 484-582
Procedure: (§1) The reaction mixture contained 2 µL of protease and 2 µL of inhibitor (or DMSO as a control) and was incubated for 20-30 min at room temperature prior to the substrate cleavage reaction. 150 µL of a 1 µM substrate were used in substrate buffer (0.1 M sodium acetate, 1 M sodium chloride, 1 mM EDTA, 1 MM DTT, 2% DMSO, and 1 mg/mL BSA with an adjusted pH of 4.7).

[2] = target: T2, Gag-Pol polyprotein [484-582,Q491K,I497V,V499I,E519D,R541K,D544E,L547P,Q553K,A555V,G557S,I568V,L573M,L574M] (Human immunodeficiency virus, UniProt Q9QBY3, A555V/D544E/E519D/G557S/I497V/I568V/L547P/L573M/L574M/Q491K/Q553K/R541K/V499I)
T2 construct: 484-582
Procedure: as §1

[3] = target: T3, Gag-Pol polyprotein [484-582,Q491K,I497V,V499I,E519D,G532V,I538V,R541K,D544E,L547P,Q553K,V566A,L573M] (Human immunodeficiency virus, UniProt Q9QBY3, D544E/E519D/G532V/I497V/I538V/L547P/L573M/Q491K/Q553K/R541K/V499I/V566A)
T3 construct: 484-582
Procedure: as §1

SMILES | Ki [1] [nM] | Ki [2] [nM] | Ki [3] [nM]
CCC(CC)CN(C[C@@H](O)[C@H](Cc1ccccc1)NC(=O)O[C@H]1CO[C@H]2OCC[C@H]21)S(=O)(=O)c1ccc2c(c1)OCO2 [(3R,3aS,6aR)-Hexahydrofuro[2,3-b]furan-3-yl ((2S,3R)-4-(N-(2-ethylbutyl)benzo[d][1,3]dioxole-5-sulfonamido)-3-hydroxy-1-phenylbutan-2-yl)carbamate (11d)] | 0.006 | 0.104 | 0.034
CC[C@H](C)CN(C[C@@H](O)[C@H](Cc1ccccc1)NC(=O)O[C@H]1CO[C@H]2OCC[C@H]21)S(=O)(=O)c1ccc2ncsc2c1 [(3R,3aS,6aR)-Hexahydrofuro[2,3-b]furan-3-yl ((2S,3R)-3-hydroxy-4-(N-((S)-2-methylbutyl)benzo[d]thiazole-6-sulfonamido)-1-phenylbutan-2-yl)carbamate (10e)] | 0.025 | 0.041 | 0.012
CC[C@H](C)CN(C[C@@H](O)[C@H](Cc1ccccc1)NC(=O)O[C@H]1CO[C@H]2OCC[C@H]21)S(=O)(=O)c1ccc(CO)cc1 [(3R,3aS,6aR)-Hexahydrofuro[2,3-b]furan-3-yl ((2S,3R)-3-hydroxy-4-(4-(hydroxymethyl)-N-((S)-2-methylbutyl)phenylsulfonamido)-1-phenylbutan-2-yl)carbamate (10c)] | 0.013 | 0.004 | 0.022
CC[C@H](C)CN(C[C@@H](O)[C@H](Cc1ccccc1)NC(=O)O[C@H]1CO[C@H]2OCC[C@H]21)S(=O)(=O)c1ccc(OC)cc1 [(3R,3aS,6aR)-Hexahydrofuro[2,3-b]furan-3-yl ((2S,3R)-3-hydroxy-4-(4-methoxy-N-((S)-2-methylbutyl)phenylsulfonamido)-1-phenylbutan-2-yl)carbamate (10b)] | 0.103 | 0.021 | 0.005
CCC(CC)CN(C[C@@H](O)[C@H](Cc1ccccc1)NC(=O)O[C@H]1CO[C@H]2OCC[C@H]21)S(=O)(=O)c1ccc(N)cc1 [(3R,3aS,6aR)-Hexahydrofuro[2,3-b]furan-3-yl ((2S,3R)-4-(4-amino-N-(2-ethylbutyl)phenylsulfonamido)-3-hydroxy-1-phenylbutan-2-yl)carbamate (11a)] | 0.062 | 0.022 | 0.034
CC[C@H](C)CN(C[C@@H](O)[C@H](Cc1ccccc1)NC(=O)O[C@H]1CO[C@H]2OCC[C@H]21)S(=O)(=O)c1ccc(N)cc1 [(3R,3aS,6aR)-Hexahydrofuro[2,3-b]furan-3-yl ((2S,3R)-4-(4-amino-N-((S)-2-methylbutyl)phenylsulfonamido)-3-hydroxy-1-phenylbutan-2-yl)carbamate (10a)] | 0.006 | 0.013 | 0.016
CCC(CC)CN(C[C@@H](O)[C@H](Cc1ccccc1)NC(=O)O[C@H]1CO[C@H]2OCC[C@H]21)S(=O)(=O)c1ccc(OC)cc1 [(3R,3aS,6aR)-Hexahydrofuro[2,3-b]furan-3-yl ((2S,3R)-4-(N-(2-ethylbutyl)-4-methoxyphenylsulfonamido)-3-hydroxy-1-phenylbutan-2-yl)carbamate (11b)] | 0.01 | 0.134 | 0.001
CCC(CC)CN(C[C@@H](O)[C@H](Cc1ccccc1)NC(=O)O[C@H]1CO[C@H]2OCC[C@H]21)S(=O)(=O)c1ccc2ncsc2c1 [(3R,3aS,6aR)-Hexahydrofuro[2,3-b]furan-3-yl ((2S,3R)-4-(N-(2-ethylbutyl)benzo[d]thiazole-6-sulfonamido)-3-hydroxy-1-phenylbutan-2-yl)carbamate (11e)] | 0.108 | 0.052 | 0.126
CC[C@H](C)CN(C[C@@H](O)[C@H](Cc1ccccc1)NC(=O)O[C@H]1CO[C@H]2OCC[C@H]21)S(=O)(=O)c1ccc2c(c1)OCO2 [(3R,3aS,6aR)-Hexahydrofuro[2,3-b]furan-3-yl ((2S,3R)-3-hydroxy-4-(N-((S)-2-methylbutyl)benzo[d][1,3]dioxole-5-sulfonamido)-1-phenylbutan-2-yl)carbamate (10d)] | 0.035 | 0.099 | 0.029
CCC(CC)CN(C[C@@H](O)[C@H](Cc1ccccc1)NC(=O)O[C@H]1CO[C@H]2OCC[C@H]21)S(=O)(=O)c1ccc(CO)cc1 [(3R,3aS,6aR)-Hexahydrofuro[2,3-b]furan-3-yl ((2S,3R)-4-(N-(2-ethylbutyl)-4-(hydroxymethyl)phenylsulfonamido)-3-hydroxy-1-phenylbutan-2-yl)carbamate (11c)] | 0.026 | 0.07 | 0.005
